# Data reported in PMC12345137 (mBio, 2025).
# Where two headings read alike, the source gives them in different places. Positions of bridges follow the written chain, without caps; N, C: chain ends. Residues, ends and D or L forms follow the SMILES beside them.
# Legend:
# [1] = system: S. epidermidis (SE) agr-III; settings: fluorescence; ref (13); cited from earlier work
# SA AgrC-II = SA AgrC-II (Staphylococcus aureus, UniProt O33587); experiment: β-Lactamase assay, reporter strain RN10829 (P2-agrA:P3-blaZ) with pagrC-II; type: cell-based
# Chain of SA AgrC-II (O33587 entry or part of it): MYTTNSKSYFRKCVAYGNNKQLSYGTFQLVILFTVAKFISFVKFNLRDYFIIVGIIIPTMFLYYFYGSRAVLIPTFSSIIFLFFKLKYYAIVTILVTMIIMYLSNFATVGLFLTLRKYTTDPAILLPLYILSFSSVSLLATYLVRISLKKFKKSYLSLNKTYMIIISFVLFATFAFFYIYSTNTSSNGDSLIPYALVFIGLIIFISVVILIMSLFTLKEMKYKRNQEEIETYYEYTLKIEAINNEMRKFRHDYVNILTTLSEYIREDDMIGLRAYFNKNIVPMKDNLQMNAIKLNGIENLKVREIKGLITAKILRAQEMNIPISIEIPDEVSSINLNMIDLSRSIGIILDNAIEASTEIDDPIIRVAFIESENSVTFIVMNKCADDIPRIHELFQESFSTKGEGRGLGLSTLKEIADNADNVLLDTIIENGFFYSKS
# From the text: (§1) The β-lactamase reporter strain RN10829 (P2-agrA:P3-blaZ) ([62]), with pagrC-I ([63]), pagrC-II, pagrC-III, or pagrC-IV ([11]), substituting the native agr locus with a chromosomal integration of P2-agrA and P3-blaZ and a plasmid from which a wild-type variant of the corresponding AgrC is expressed, was used to assess inhibition and activation of the AgrC receptor via β-lactamase activity in response to varying concentrations of the QS modulating peptides. Overnight cultures of the reporter strains in TSB medium were diluted 1:250 in fresh TSB medium and grown to OD600 = 0.35–0.40 (early exponential phase) at 37°C. Peptide solutions (10 μL) in 1:10 serial dilutions from DMSO stock solutions (1 mM) in TSB medium (final concentrations = 10 μM–10 pM) were added to each well of a clear 96-well plate as well as solutions (10 μL) of cognate AIP (final concentration = 100 nM) in TSB medium followed by 80 μL of bacterial cells. Control wells for 100% β-lactamase activity were wells replacing peptide solution with TSB media (10 μL), and control wells for 0% β-lactamase activity were wells replacing both peptide and cognate AIP solutions with TSB medium (20 μL). The 96-well plates were incubated at 37°C shaking at 200 rpm for 1 h and immediately frozen down at −80°C to minimize growth during nitrocefin treatment. Next, the 96-well plates were thawed, and OD600 values were determined using a plate reader followed by the addition of 50 μL of nitrocefin solution to the wells (final concentration = 33.3 μg/mL). β-Lactamase activity was monitored at OD486 every 20 s for 10 min at 37°C using a plate-reader. Linear nitrocefin conversion rates were plotted to obtain IC50 values by non-linear regression with variable slope using GraphPad Prism 10.4 software. Assays were performed at least as duplicate determinations in biological triplicate.
# S. aureus (SA) agr-IV = settings: fluorescence, cited from earlier work
# S. epidermidis agr-I = S. epidermidis agr-I (Staphylococcus epidermidis, UniProt Q5HMY3); experiment: cell-based; type: cell-based; settings: fluorescent reporter strain; peptides tested at 1000, 50, 2.5, 0.125 nM or in dose-response
# Chain of S. epidermidis agr-I (Q5HMY3 entry or part of it): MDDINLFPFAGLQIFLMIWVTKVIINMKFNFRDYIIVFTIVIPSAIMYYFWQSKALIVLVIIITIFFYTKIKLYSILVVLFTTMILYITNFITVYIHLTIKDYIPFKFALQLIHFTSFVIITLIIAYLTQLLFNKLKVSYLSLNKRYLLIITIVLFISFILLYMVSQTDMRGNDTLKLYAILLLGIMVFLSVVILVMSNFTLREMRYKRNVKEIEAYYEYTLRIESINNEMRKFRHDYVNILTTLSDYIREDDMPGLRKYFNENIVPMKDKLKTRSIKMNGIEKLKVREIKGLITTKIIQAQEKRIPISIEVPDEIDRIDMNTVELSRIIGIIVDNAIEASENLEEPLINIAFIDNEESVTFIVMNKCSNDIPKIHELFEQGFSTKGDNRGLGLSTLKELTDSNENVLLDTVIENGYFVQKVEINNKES
# Method: (§2) Peptides were evaluated for the ability to interfere with agr-mediated quorum sensing in S. aureus (AH1677, AH430, AH1747, and AH1872 for agr-I–IV, respectively) ([40]) using reporter strains expressing yellow fluorescent protein (YFP) upon agr activation. Interference with agr-mediated quorum sensing in S. epidermidis (AH3408, AH3623, and AH3409 for agr-I–III, respectively) ([45]), and S. lugdunensis (AH4031 for agr-I) ([37]) was evaluated using reporter strains expressing superfolder green fluorescent protein (sGFP) upon agr activation. Overnight cultures of the reporter strains were grown in TSB medium containing chloramphenicol (CAM, 10 μg/mL for S. aureus) or erythromycin (ERM, 10 μg/mL of S. epidermidis and S. lugdunensis) and diluted 1:100 in fresh TSB medium containing the same antibiotic. Assays were performed in sterile black 96-well plates with a clear bottom. […] DMSO stock solutions of peptides (1 mM) were diluted in TSB media and added (15 μL) in technical triplicate to the 96-well plate, followed by diluted bacterial overnight cultures (135 μL). […] Wells containing 150 μL TSB medium were used to measure background fluorescence. The 96-well plates were incubated in a humidified incubator at 37°C shaking at 1,000 rpm for 22–24 h and fluorescence (for GFP: excitation 479 nm, emission 520 nm; for YFP: excitation 500 nm, emission 541 nm; automatic gain), and OD600 values were subsequently measured using a plate reader. Background fluorescence was subtracted from all wells and further normalized to the corresponding OD600 value of the respective wells. The average fluorescence of control wells was used as a relative measure for 100% activation of the agr-circuit, and bar graphs were generated using GraphPad Prism 10.4 software. All assays were performed in at least a biological duplicate.
# Overnight cultures of the reporter strains were grown in TSB medium containing chloramphenicol (CAM, 10 μg/mL for S. aureus) or erythromycin (ERM, 10 μg/mL of S. epidermidis and S. lugdunensis) and diluted 1:100 in fresh TSB medium containing the same antibiotic. Assays were performed in sterile black 96-well plates with clear bottoms. Peptide solutions (15 μL) in 1:5 serial dilutions from DMSO stock solutions (1 mM) in TSB medium were added to the 96-well plate in technical duplicate followed by diluted bacterial overnight cultures (135 μL). […] Wells containing 150 μL TSB medium were used to measure background fluorescence. The 96-well plates were incubated in a humidified incubator at 37°C shaking at 1,000 rpm for 22–24 h and fluorescence (for GFP: excitation 479 nm, emission 520 nm; for YFP: excitation 500 nm, emission 541 nm; automatic gain), and OD600 values were subsequently measured using a plate reader. Background fluorescence was subtracted from all wells and further normalized to the corresponding OD600 value of the respective wells. The average fluorescence of control wells was used as a relative measure for 100% activation of the agr-circuit. Relative agr activity was plotted to obtain IC50 values by non-linear regression with variable slope using GraphPad Prism 10.4 software. All assays were performed in biological triplicate.
# SA AgrC-IV = SA AgrC-IV (Staphylococcus aureus, UniProt Q309Z2); experiment: β-Lactamase assay, reporter strain RN10829 (P2-agrA:P3-blaZ) with pagrC-IV; type: cell-based; settings: 100 nM cognate AIP; ± SEM; -b = no inhibition recorded at the highest AIP concentration tested; -a = only partial inhibition observed; this study (curves in Fig. S22)
# Chain of SA AgrC-IV (Q309Z2 entry or part of it): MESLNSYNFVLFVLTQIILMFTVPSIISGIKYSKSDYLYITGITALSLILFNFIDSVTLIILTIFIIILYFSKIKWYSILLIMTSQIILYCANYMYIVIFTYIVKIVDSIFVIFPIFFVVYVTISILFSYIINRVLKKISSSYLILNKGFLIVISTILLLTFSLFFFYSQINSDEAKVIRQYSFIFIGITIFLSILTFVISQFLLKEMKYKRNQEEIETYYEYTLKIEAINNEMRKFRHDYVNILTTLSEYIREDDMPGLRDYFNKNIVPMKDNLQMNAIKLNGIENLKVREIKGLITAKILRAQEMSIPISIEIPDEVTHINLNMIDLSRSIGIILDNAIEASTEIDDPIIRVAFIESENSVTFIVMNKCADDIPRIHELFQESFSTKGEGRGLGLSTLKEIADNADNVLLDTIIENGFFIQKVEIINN
# From the text: as §1
# S. aureus (SA) agr-I = settings: fluorescence, cited from earlier work
# S. aureus (SA) agr-II = settings: fluorescence, cited from earlier work
# [2] = system: S. epidermidis (SE) agr-II; settings: fluorescence; ref (13); cited from earlier work
# SA AgrC-III = SA AgrC-III (Staphylococcus aureus, UniProt O33590); experiment: β-Lactamase assay, reporter strain RN10829 (P2-agrA:P3-blaZ) with pagrC-III; type: cell-based
# Chain of SA AgrC-III (O33590 entry or part of it): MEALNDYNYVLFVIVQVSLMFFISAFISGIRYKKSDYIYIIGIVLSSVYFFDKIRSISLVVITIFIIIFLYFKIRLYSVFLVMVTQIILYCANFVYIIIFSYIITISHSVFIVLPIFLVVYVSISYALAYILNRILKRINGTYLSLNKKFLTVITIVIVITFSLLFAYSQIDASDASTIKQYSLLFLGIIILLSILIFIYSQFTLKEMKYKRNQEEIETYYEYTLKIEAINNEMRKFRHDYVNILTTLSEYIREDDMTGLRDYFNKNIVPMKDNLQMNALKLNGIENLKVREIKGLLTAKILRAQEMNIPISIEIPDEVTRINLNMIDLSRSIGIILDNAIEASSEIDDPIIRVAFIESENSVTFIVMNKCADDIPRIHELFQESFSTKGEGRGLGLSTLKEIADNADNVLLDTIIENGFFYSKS
# From the text: as §1
# SA AgrC-I [3] = biological target: T1, SA AgrC-I (Staphylococcus aureus, UniProt O07911); experiment: β-Lactamase assay, reporter strain RN10829 (P2-agrA:P3-blaZ) with pagrC-I; type: cell-based
# T1 sequence (O07911 entry or part of it): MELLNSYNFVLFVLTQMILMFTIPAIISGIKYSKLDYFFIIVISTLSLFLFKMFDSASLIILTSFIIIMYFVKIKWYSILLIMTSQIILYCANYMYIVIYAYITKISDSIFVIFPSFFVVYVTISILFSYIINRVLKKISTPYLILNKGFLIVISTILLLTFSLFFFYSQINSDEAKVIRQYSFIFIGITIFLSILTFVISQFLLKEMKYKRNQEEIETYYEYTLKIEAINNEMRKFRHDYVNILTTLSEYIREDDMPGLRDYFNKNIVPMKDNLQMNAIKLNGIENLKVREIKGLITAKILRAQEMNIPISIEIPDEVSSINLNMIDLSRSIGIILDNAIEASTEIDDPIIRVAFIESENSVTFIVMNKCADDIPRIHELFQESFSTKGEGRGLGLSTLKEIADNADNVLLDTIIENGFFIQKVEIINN
# From the text: as §1, with “Control wells for 100% β-lactamase activity were wells replacing peptide solution with TSB media (10 μL), and control wells for 0% β-lactamase activity were wells replacing both peptide and cognate AIP solutions with TSB medium (20 μL).” left out
# S. aureus (SA) agr-III = settings: fluorescence, cited from earlier work
# SA AgrC-I [4] = biological target: T1, SA AgrC-I; settings: 100 nM cognate AIP; ± SEM; -b = no inhibition recorded at the highest AIP concentration tested; determined previously; ref (1); read-out: IC50, SA AgrC-I, b-lactamase assay; cited from earlier work
# S. aureus agr-IV = S. aureus agr-IV (Staphylococcus aureus, UniProt Q309Z2); experiment: cell-based; type: cell-based; settings: fluorescent reporter strain; peptides tested at 1000, 50, 2.5, 0.125 nM or in dose-response
# Chain of S. aureus agr-IV (Q309Z2 entry or part of it): as the sequence (Q309Z2 entry or part of it) above
# Method: as §2, with “μL). Control wells for 100% agr activity were wells replacing the peptide solution with TSB medium (15 μL).” for “μL).”
# (§3) Overnight cultures of the reporter strains were grown in TSB medium containing chloramphenicol (CAM, 10 μg/mL for S. aureus) or erythromycin (ERM, 10 μg/mL of S. epidermidis and S. lugdunensis) and diluted 1:100 in fresh TSB medium containing the same antibiotic. Assays were performed in sterile black 96-well plates with clear bottoms. Peptide solutions (15 μL) in 1:5 serial dilutions from DMSO stock solutions (1 mM) in TSB medium were added to the 96-well plate in technical duplicate followed by diluted bacterial overnight cultures (135 μL). Control wells for 100% agr activity were wells replacing the peptide solution with TSB medium (15 μL). Wells containing 150 μL TSB medium were used to measure background fluorescence. The 96-well plates were incubated in a humidified incubator at 37°C shaking at 1,000 rpm for 22–24 h and fluorescence (for GFP: excitation 479 nm, emission 520 nm; for YFP: excitation 500 nm, emission 541 nm; automatic gain), and OD600 values were subsequently measured using a plate reader. Background fluorescence was subtracted from all wells and further normalized to the corresponding OD600 value of the respective wells. The average fluorescence of control wells was used as a relative measure for 100% activation of the agr-circuit. Relative agr activity was plotted to obtain IC50 values by non-linear regression with variable slope using GraphPad Prism 10.4 software. All assays were performed in biological triplicate.
# S. aureus agr-III = S. aureus agr-III (Staphylococcus aureus, UniProt O33590); experiment: cell-based; settings: fluorescent reporter strain; peptides tested at 1000, 50, 2.5, 0.125 nM or in dose-response
# Chain of S. aureus agr-III (O33590 entry or part of it): as the sequence (O33590 entry or part of it) above
# Method: as §2, with “μL). Control wells for 100% agr activity were wells replacing the peptide solution with TSB medium (15 μL).” for “μL).”
# as §3
compound,measurement,setting,value
"CC(C)[C@H](NC(=O)[C@H](CC(N)=O)NC(=O)[C@H](Cc1ccc(O)cc1)NC(=O)[C@@H](N)CO)C(=O)N[C@H]1CSC(=O)[C@H](Cc2ccccc2)NC(=O)[C@H](Cc2ccc(O)cc2)NC(=O)CNC(=O)CNC1=O [compound 10, S. hominis AIP-I] (H-SYNVCGGYF; thioester 5-C; N-terminus assumed)",IC50,[1],16 nM
same,IC50,SA AgrC-II,> 1000 nM
same,"inhibition by supernatant, SA agr-IV","S. aureus (SA) agr-IV; by supernatant, ref (12)",no inhibition
same,IC50,S. aureus (SA) agr-IV; ref (13),2910 nM
same,"QS interaction in words (inhibition / activation), S. epidermidis agr-I",S. epidermidis agr-I,activates
same,"IC50, SA AgrC-IV, b-lactamase assay",SA AgrC-IV,-b
same,IC50,S. aureus (SA) agr-I; ref (12),0.624 nM
same,IC50,S. aureus (SA) agr-I; ref (13),13 nM
same,"inhibition by supernatant, SA agr-II","S. aureus (SA) agr-II; by supernatant, ref (12)",~ 70%
same,IC50,S. aureus (SA) agr-II; ref (13),31 nM
same,IC50,[2],34 nM
same,IC50,SA AgrC-III,338 ± 83 nM
same,IC50,SA AgrC-I [3],224 ± 37 nM
same,"inhibition by supernatant, SA agr-III","S. aureus (SA) agr-III; by supernatant, ref (12)",~ 80%
same,IC50,S. aureus (SA) agr-III; ref (13),5 nM
S. lugdunensis AIP-II (DMCNGYF; not fully specified; cyclic: thiolactone between Cys3 side-chain thiol and C-terminal Phe7 carboxyl; free N-terminus) [compound 9],IC50,SA AgrC-I [4],> 1000 nM
S. saprophyticus AIP-I (INPCFGYT; not fully specified; cyclic: thiolactone between Cys4 side-chain thiol and C-terminal Thr8 carboxyl; free N-terminus) [compound 19],IC50,SA AgrC-I [4],360 ± 30 nM
S. simulans AIP-II P4A [compound 39],"QS interaction in words (inhibition / activation), S. aureus agr-IV",S. aureus agr-IV,activator
same,"QS interaction in words (inhibition / activation), S. aureus agr-III",S. aureus agr-III,activator
